Converted amounts (≈) assume the structure as drawn. Positions of bridges follow the written chain, without caps; N, C: chain ends. Non-standard residues stand in square brackets, D forms with d. Residues, ends and D or L forms follow the SMILES beside them. No end group written: not given here. Dab = NCC[C@H](N)C(=O)O
Columns and labels:
Cercospora sojina = assay: 96-well plate antifungal MIC, resazurin cell viability (Example 4); format: cell-based; conditions: Table 19; unit not given, peptide concentrations in μM
Alternaria alternata = assay: as above; format: cell-based; conditions: Table 19; unit not given, peptide concentrations in μM
[1] = test system: Colletotrichum gloeosporioides; assay: as above; format: cell-based; conditions: Table 19; unit not given, peptide concentrations in μM
B. cinerea [2] = assay: Semi-in planta drop inoculation assay on detached leaves of N. benthamiana, gray mold (Example 4); format: in vivo; conditions: detached N. benthamiana leaves; for Reduction of gray mold disease symptoms (lesion sizes): peptide 1.5, 3 and 6 μM, 48 h after inoculation
Botrytis cinerea T-4 = conditions: for MIC (μM) SFM: Table 18, SFM; for MIC (μM) (SFM + 2 mM CaCl2): Table 18, SFM + 2 mM CaCl2; for MIC (μM) (SFM + 100 mM KCl): Table 18, SFM + 100 mM KCl; for MIC (μM) (SFM + 100 mM NaCl): Table 18, SFM + 100 mM NaCl
Candida auris = assay: Antifungal MIC in RPMI medium; conditions: RPMI medium rich in cations
F. graminearum = conditions: in vitro, low cationic conditions; F. graminearum
Candida glabrata = assay: Antifungal MIC in RPMI medium; conditions: RPMI medium rich in cations
B. cinerea [3] = conditions: for Antifungal activity relative to the wild-type GMA4C_AC control: in vitro, low cationic conditions
P. capsici = assay: Antifungal MIC assay in SFM culture media (Example 1); format: cell-based; conditions: in vitro, low cationic conditions
F. oxysporum = assay: as above; format: cell-based; conditions: in vitro, low cationic conditions; F. oxysporum
[4] = test system: Fusarium graminearum PH-1; format: cell-based; conditions: MIC Day 1; 96-well plate, resazurin cell viability
[5] = test system: Zymoseptoria tritici IPO323; format: cell-based
Botrytis cinerea T4 = format: cell-based
B. cinerea [6] = assay: Pepper - Botrytis cinerea in planta spray assay, preventative and curative; format: in vivo; conditions: pepper plants

Row | Molecule | In vitro antifungal activity (MIC) Cercospora sojina (Cercospora sojina) | In vitro antifungal activity (MIC) Alternaria alternata (Alternaria alternata) | In vitro antifungal activity (MIC) Colletotrichum gloeosporioides [1] | MIC (μM) SFM (Botrytis cinerea T-4) | MIC (μM) (SFM + 2 mM CaCl2) (Botrytis cinerea T-4) | MIC (μM) (SFM + 100 mM KCl) (Botrytis cinerea T-4) | MIC (μM) (SFM + 100 mM NaCl) (Botrytis cinerea T-4) | Antifungal activity relative to the wild-type GMA4C_AC control (F. graminearum) | Antifungal activity relative to the wild-type GMA4C_AC control (B. cinerea [3]; B. cinerea) | Antifungal activity relative to the wild-type GMA4C_AC control (P. capsici) | Antifungal activity relative to the wild-type GMA4C_AC control (F. oxysporum) | other results
1 | GRCRGFRRRCFCTTHC-NH2 (cysteine pairing not given here) [GMA4AC] | >12 | >12 | >12 |  |  |  |  |  |  |  |  | 
2 | CC[C@H](C)[C@@H]1NC(=O)[C@H](CCCNC(=N)N)NC(=O)[C@H]([C@@H](C)O)NC(=O)[C@H](Cc2c[nH]c3ccccc23)NC(=O)[C@H](Cc2ccc(O)cc2)NC(=O)[C@H](Cc2c[nH]c3ccccc23)NC(=O)[C@H](CCCNC(=N)N)NC(=O)[C@H](CCCNC(=N)N)NC(=O)[C@H](CCCNC(=N)N)NC(=O)[C@H](Cc2ccccc2)NC(=O)CNC(=O)[C@H](CCCCN)NC(=O)[C@@H](NC(=O)[C@H](CCCNC(=N)N)NC(=O)CNC(=O)CN)CSSC[C@@H](C(N)=O)NC1=O [GMA4C_V10] (H-GGRCKGFRRRWYWTRIC-NH2; disulfide 4-17; N-terminus assumed) | 6 | >12 | >12 | 3 µM (≈ 6.6 µg/mL) | 3 µM | 3 to 6 µM | 3 µM |  |  |  |  | Reduction of gray mold symptoms at low concentrations (B. cinerea [2]; peptide 1.5 μM and 3 μM): more effective in reducing the symptoms of gray mold than GMA4C_V9; Reduction of gray mold disease symptoms (lesion sizes) (B. cinerea [2]): effective in reducing gray mold disease symptoms
3 | C[C@H](NC(=O)CN)C(=O)N[C@@H](CS)C(=O)N[C@@H](Cc1c[nH]cn1)C(=O)N[C@@H](CCCNC(=N)N)C(=O)N[C@@H](CCC(N)=O)C(=O)NCC(=O)N[C@@H](Cc1ccccc1)C(=O)NCC(=O)N[C@@H](Cc1ccccc1)C(=O)N[C@@H](C)C(=O)N[C@@H](CS)C(=O)N[C@@H](Cc1ccccc1)C(=O)N[C@@H](CS)C(=O)N[C@@H](Cc1ccc(O)cc1)C(=O)N[C@@H](CCCCN)C(=O)N[C@@H](CCCCN)C(=O)N[C@@H](CS)C(N)=O [GMA5CA_WT] (H-GACHRQGFGFACFCYKKC-NH2) | 12 | 6 | >12 |  |  |  |  |  |  |  |  | 
4 | CC[C@H](C)[C@H](NC(=O)[C@H](CCCNC(=N)N)NC(=O)[C@@H](NC(=O)[C@@H](NC(=O)[C@H](Cc1ccccc1)NC(=O)[C@@H](NC(=O)[C@H](CCCNC(=N)N)NC(=O)[C@H](CCCNC(=N)N)NC(=O)[C@H](CCCNC(=N)N)NC(=O)[C@H](Cc1ccccc1)NC(=O)CNC(=O)[C@H](CCCNC(=N)N)NC(=O)[C@H](CS)NC(=O)[C@H](CCCNC(=N)N)NC(=O)CNC(=O)CN)C(C)C)C(C)C)[C@@H](C)O)C(=O)N[C@@H](CS)C(N)=O [GMA4C_V3A] (H-GGRCRGFRRRVFVTRIC-NH2; N-terminus assumed) |  |  |  |  |  |  |  | equivalent | equivalent | equivalent | equivalent | Antifungal activity against C. auris (Candida auris): show antifungal activity; Antifungal activity against C. glabrata (Candida glabrata): show antifungal activity; B. cinerea MIC (B. cinerea [3]): 1.5 µM; MIC (μM) Botrytis cinerea (B. cinerea [3]): 3 µM (≈ 6.12 µg/mL); MIC Values (μM) against B. cinerea (B. cinerea [3]): 3 µM (≈ 6.12 µg/mL); SFM + 2 mM CaCl2 MIC (B. cinerea [3]): >6 µM; SFM + 100 mM KCl MIC (B. cinerea [3]): >6 µM; SFM + 100 mM NaCl MIC (B. cinerea [3]): 1.5 to 3 µM; SFM MIC (B. cinerea [3]): 3 µM
5 | CC[C@H](C)[C@@H]1NC(=O)[C@H](CCCNC(=N)N)NC(=O)[C@H]([C@@H](C)O)NC(=O)[C@H](Cc2ccccc2)NC(=O)[C@H](Cc2c[nH]c3ccccc23)NC(=O)[C@H](Cc2ccccc2)NC(=O)[C@H](CCCNC(=N)N)NC(=O)[C@H](CCCNC(=N)N)NC(=O)[C@H](CC(C)C)NC(=O)[C@H](Cc2ccccc2)NC(=O)CNC(=O)[C@H](CCCCN)NC(=O)[C@@H](NC(=O)[C@H](CCCNC(=N)N)NC(=O)CNC(=O)CN)CSSC[C@@H](C(N)=O)NC1=O [GMA4C_V9] (H-GGRCKGFLRRFWFTRIC-NH2; disulfide 4-17; N-terminus assumed) | 6 | >12 | >12 | 3 µM (≈ 6.3 µg/mL) | 12 µM | 6 to 12 µM | 3 µM |  |  |  |  | Reduction of gray mold disease symptoms (lesion sizes) (B. cinerea [2]): effective in reducing gray mold disease symptoms
6 | PD122.1.1: Setaria italica wild-type defensin SEQ ID NO: 715 with an N-terminal alanine, expressed in Pichia pastoris (RRCVSQSHKFVGSCMRKSNCQHVCQTEGFPWGECRFHGGLLRRCFCNKLC; N-terminal alanine; listed as Setaria italica) |  |  |  |  |  |  |  |  |  |  |  | F. graminearum PH-1 MIC Day1 [4]: 1.5 µM; Z. tritici IPO323 MIC Day 1 [5]: 0.75 µM; Z. tritici IPO323 MIC Day 7 [5]: 2.5 µM; Z. tritici IPO323 MIC Day 14 [5]: 3 µM; B. cinerea T4 MIC Day1 (Botrytis cinerea T4): 0.75 µM; Curative protection against gray mold disease (B. cinerea [6]; 24 μM spray 24 hours after B. cinerea spores, 5 dpi): reduction of gray mold disease symptoms; Preventative protection against gray mold disease (B. cinerea [6]; 24 μM spray 24 hours before B. cinerea spores, 96 hpi): reduction of gray mold disease symptoms
7 | C[C@H](NC(=O)CN)C(=O)N[C@H]1CSSC[C@@H](C(N)=O)NC(=O)[C@H](CCCCN)NC(=O)[C@H](CCCCN)NC(=O)[C@H](Cc2ccc(O)cc2)NC(=O)[C@H](Cc2c[nH]c3ccccc23)NC(=O)[C@H](Cc2ccccc2)NC(=O)[C@H](Cc2c[nH]c3ccccc23)NC(=O)[C@H](C)NC(=O)[C@H](Cc2ccccc2)NC(=O)CNC(=O)[C@H](Cc2ccccc2)NC(=O)CNC(=O)[C@H](CCC(N)=O)NC(=O)[C@H](CCCNC(=N)N)NC(=O)[C@H](Cc2c[nH]cn2)NC1=O [GMA5CA_V3] (H-GACHRQGFGFAWFWYKKC-NH2; disulfide 3-18; N-terminus assumed) | 6 | 3 | >12 | 3 µM (≈ 6.57 µg/mL) | >12 µM | >12 µM | >12 µM |  |  |  |  | 
8 | N=C(N)NCCC[C@H](NC(=O)CNC(=O)[C@@H](N)Cc1ccccc1)C(=O)N[C@@H](CS)C(=O)N[C@@H](CCCNC(=N)N)C(=O)NCC(=O)N[C@@H](Cc1ccccc1)C(=O)N[C@@H](CCCNC(=N)N)C(=O)N[C@@H](CCCNC(=N)N)C(=O)N[C@@H](CCCNC(=N)N)C(=O)N[C@@H](CS)C(=O)N[C@@H](Cc1ccccc1)C(=O)N[C@@H](CS)C(=O)N[C@@H](Cc1c[nH]c2ccccc12)C(=O)N[C@@H](CCCNC(=N)N)C(=O)N[C@@H](Cc1c[nH]c2ccccc12)C(=O)N[C@@H](CS)C(N)=O [GMA4C_V4A] (H-FGRCRGFRRRCFCWRWC-NH2; N-terminus assumed) |  |  |  |  |  |  |  | equivalent | equivalent | equivalent | equivalent | Potency relative to GMA4C_AC in presence of cations (B. cinerea [3]; B. cinerea, 100 mM NaCl or 100 mM KCl): 2 fold; Fungal growth inhibition at 6 μM (B. cinerea [3]; B. cinerea, in presence of 2 mM CaCl2, peptide 6 μM): inhibit fungal growth
9 | NCC[C@H](NC(=O)CNC(=O)[C@@H](N)Cc1ccccc1)C(=O)N[C@@H](CS)C(=O)N[C@@H](CCN)C(=O)NCC(=O)N[C@@H](Cc1ccccc1)C(=O)N[C@@H](CCN)C(=O)N[C@@H](CCN)C(=O)N[C@@H](CCN)C(=O)N[C@@H](CS)C(=O)N[C@@H](Cc1ccccc1)C(=O)N[C@@H](CS)C(=O)N[C@@H](Cc1c[nH]c2ccccc12)C(=O)N[C@@H](CCN)C(=O)N[C@@H](Cc1c[nH]c2ccccc12)C(=O)N[C@@H](CS)C(N)=O [GMA4C_V5A, FG(Dab)C(Dab)GF(Dab)(Dab)(Dab)CFCW(Dab)WC-NH2] (H-FG[Dab]C[Dab]GF[Dab][Dab][Dab]CFCW[Dab]WC-NH2; N-terminus assumed) |  |  |  |  |  |  |  | equivalent | equivalent | equivalent | equivalent | 
10 | C[C@H](NC(=O)CN)C(=O)N[C@H]1CSSC[C@@H](C(N)=O)NC(=O)[C@H](CCCCN)NC(=O)[C@H](CCCCN)NC(=O)[C@H](Cc2ccc(O)cc2)NC(=O)[C@H](Cc2ccccc2)NC(=O)[C@H](Cc2ccccc2)NC(=O)[C@H](Cc2ccccc2)NC(=O)[C@H](C)NC(=O)[C@H](Cc2ccccc2)NC(=O)CNC(=O)[C@H](Cc2ccccc2)NC(=O)CNC(=O)[C@H](CCC(N)=O)NC(=O)[C@H](CCCNC(=N)N)NC(=O)[C@H](Cc2c[nH]cn2)NC1=O [GMA5CA_V4] (H-GACHRQGFGFAFFFYKKC-NH2; disulfide 3-18; N-terminus assumed) | 6 | 3 | >12 | 3 µM (≈ 6.33 µg/mL) | >12 µM | >12 µM | >12 µM |  |  |  |  | 
